# Reference: paper PMC12281424, “A Rac-specific competitive inhibitor of guanine nucleotide binding reduces metastasis in triple-negative breast cancer” (Cell Reports Medicine, 2025)
# How the values were obtained:
# Type in all cases: biochemical
# [1] = target: Arg(h) (Homo sapiens, UniProt P42684); test: Kinase Profiler
# Procedure: (§1) Blood cell counts, kinase profiler, safety screen, bacterial cytotoxicity, Ames, micronucleus assays were performed by the company Eurofins (France). The kinase profiler was performed by the company Eurofins (Discovery, Panlab and Cerep).
# [2] = target: Blk(m) (Mus musculus, UniProt P16277); test: Kinase Profiler
# Procedure: as §1
# [3] = target: CaMKIV(h) (Homo sapiens, UniProt Q16566); test: Kinase Profiler
# Procedure: (§2) The kinase profiler was performed by the company Eurofins (Discovery, Panlab and Cerep).
# [4] = target: CDK18/cyclinY(h) (Homo sapiens, UniProt Q07002); test: Kinase Profiler
# Procedure: as §2
# [5] = target: EphA1(h) (Homo sapiens, UniProt P21709); test: Kinase Profiler
# Procedure: as §2
# [6] = target: FGFR3(h) (Homo sapiens, UniProt P22607); test: Kinase Profiler
# Procedure: as §2
# [7] = target: HRI(h) (Homo sapiens, UniProt Q9BQI3); test: Kinase Profiler
# Procedure: as §2
# [8] = target: JAK2(h) (Homo sapiens, UniProt O60674); test: Kinase Profiler
# Procedure: as §2
# [9] = target: JNK3(h) (Homo sapiens, UniProt P53779); test: Kinase Profiler
# Procedure: as §2
# [10] = target: PKD3(h) (Homo sapiens, UniProt O94806); test: Kinase Profiler
# Procedure: as §2
# [11] = target: SBK1(h) (Homo sapiens, UniProt Q52WX2); test: Kinase Profiler
# Procedure: as §2
# [12] = target: ZAP-70(h) (Homo sapiens, UniProt P43403); test: Kinase Profiler
# Procedure: as §2
# [13] = target: PI3K (p110a(H1047R)/p85a)(m) (Mus musculus, UniProt P42337, H1047R); test: Kinase Profiler
# Procedure: as §1
# [14] = target: PI3K (p110b/p85a)(m) (Mus musculus, UniProt Q8BTI9); test: Kinase Profiler
# Procedure: as §1
# [15] = target: RHOA (Homo sapiens, UniProt P61586); test: GEF-stimulated nucleotide exchange; set-up: Full-length RAC2, RHOG, RHOA and CDC42 were purified as previously described; made in house; p115RhoGEF DH-PH in insect cells (Sf21); conditions: 10^-5 M
# Source text: Figure 4 A41 selectively impairs RAC protein activation (A) Representative surface plasmon resonance (SPR) sensograms of binding of immobilized RHOA or CDC42 with indicated increasing concentrations of A41 (N > 3). (B) Effect of A41 on GEF-stimulated RAC2, RHOG, RHOA, and CDC42 nucleotide exchange. […] Kobs is expressed as mean ± SEM. ∗p < 0.001 vs. control. (C) Effect of A41 on RAC1 G30S activation. […] The GEF TRIO was used to induce nucleotide exchange (N = 3). Data are expressed as mean ± SEM. (D) Immunoblot analysis and associated quantification of RAC-GTP level and total RAC expression in NIH-3T3 fibroblasts expressing RAC wild-type (RAC1 WT) or RAC1 oncomutants (RAC1 P29S and RAC1b) in the absence (Ctrl) and presence of A41 (10 μM). RAC activation was measured as the ratio of RAC-GTP to total RAC and expressed relative to Ctrl condition. Data are presented as mean ± SEM. ∗∗∗p < 0.001 vs. controls.
# Full-length RAC1 carrying a 6xHis tag in C-terminus was purified as previously described.[64] […] Specific exchange activity toward RHOA determined by fluorescence kinetics is 0.04 s^−1M^−1.
# Nucleotide exchange kinetics were measured by recording the increase in fluorescence following the association of mant-GTP on GDP-bound RHO protein or the decay in fluorescence following the dissociation of mant-GDP pre-loaded onto the RHO protein (λEx = 360 nm, λEm = 440 nm) as previously described.[39] […]
# Sequence of HRI(h) (Q9BQI3 whole entry): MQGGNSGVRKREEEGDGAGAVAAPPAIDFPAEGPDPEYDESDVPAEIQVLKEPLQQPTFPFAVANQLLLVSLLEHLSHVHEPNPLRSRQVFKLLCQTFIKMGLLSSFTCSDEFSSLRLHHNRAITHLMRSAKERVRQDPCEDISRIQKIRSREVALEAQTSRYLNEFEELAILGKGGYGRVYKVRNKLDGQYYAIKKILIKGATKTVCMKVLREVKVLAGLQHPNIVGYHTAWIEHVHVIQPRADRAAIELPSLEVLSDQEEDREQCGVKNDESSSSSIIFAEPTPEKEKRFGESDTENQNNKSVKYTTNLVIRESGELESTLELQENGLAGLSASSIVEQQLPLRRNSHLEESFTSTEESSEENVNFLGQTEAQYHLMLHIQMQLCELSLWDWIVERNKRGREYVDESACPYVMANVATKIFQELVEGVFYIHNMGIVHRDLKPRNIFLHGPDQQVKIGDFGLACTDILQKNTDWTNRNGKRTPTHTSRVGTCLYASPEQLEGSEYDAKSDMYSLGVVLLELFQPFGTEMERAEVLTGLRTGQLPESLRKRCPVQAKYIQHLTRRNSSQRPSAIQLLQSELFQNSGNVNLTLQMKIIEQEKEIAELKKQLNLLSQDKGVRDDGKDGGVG
# Sequence of SBK1(h) (Q52WX2 whole entry): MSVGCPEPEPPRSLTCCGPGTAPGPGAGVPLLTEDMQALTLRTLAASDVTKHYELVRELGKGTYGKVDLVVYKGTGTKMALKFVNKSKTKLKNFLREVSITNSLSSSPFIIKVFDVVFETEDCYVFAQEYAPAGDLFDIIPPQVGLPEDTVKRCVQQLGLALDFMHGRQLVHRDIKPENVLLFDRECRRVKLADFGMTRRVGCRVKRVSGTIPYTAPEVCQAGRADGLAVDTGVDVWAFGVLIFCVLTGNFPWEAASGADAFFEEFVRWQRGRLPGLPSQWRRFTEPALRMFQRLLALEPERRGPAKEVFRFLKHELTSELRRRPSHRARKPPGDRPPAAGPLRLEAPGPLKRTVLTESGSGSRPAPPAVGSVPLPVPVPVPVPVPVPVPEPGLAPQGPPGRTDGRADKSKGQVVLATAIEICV
# Sequence of PI3K (p110b/p85a)(m) (Q8BTI9 whole entry): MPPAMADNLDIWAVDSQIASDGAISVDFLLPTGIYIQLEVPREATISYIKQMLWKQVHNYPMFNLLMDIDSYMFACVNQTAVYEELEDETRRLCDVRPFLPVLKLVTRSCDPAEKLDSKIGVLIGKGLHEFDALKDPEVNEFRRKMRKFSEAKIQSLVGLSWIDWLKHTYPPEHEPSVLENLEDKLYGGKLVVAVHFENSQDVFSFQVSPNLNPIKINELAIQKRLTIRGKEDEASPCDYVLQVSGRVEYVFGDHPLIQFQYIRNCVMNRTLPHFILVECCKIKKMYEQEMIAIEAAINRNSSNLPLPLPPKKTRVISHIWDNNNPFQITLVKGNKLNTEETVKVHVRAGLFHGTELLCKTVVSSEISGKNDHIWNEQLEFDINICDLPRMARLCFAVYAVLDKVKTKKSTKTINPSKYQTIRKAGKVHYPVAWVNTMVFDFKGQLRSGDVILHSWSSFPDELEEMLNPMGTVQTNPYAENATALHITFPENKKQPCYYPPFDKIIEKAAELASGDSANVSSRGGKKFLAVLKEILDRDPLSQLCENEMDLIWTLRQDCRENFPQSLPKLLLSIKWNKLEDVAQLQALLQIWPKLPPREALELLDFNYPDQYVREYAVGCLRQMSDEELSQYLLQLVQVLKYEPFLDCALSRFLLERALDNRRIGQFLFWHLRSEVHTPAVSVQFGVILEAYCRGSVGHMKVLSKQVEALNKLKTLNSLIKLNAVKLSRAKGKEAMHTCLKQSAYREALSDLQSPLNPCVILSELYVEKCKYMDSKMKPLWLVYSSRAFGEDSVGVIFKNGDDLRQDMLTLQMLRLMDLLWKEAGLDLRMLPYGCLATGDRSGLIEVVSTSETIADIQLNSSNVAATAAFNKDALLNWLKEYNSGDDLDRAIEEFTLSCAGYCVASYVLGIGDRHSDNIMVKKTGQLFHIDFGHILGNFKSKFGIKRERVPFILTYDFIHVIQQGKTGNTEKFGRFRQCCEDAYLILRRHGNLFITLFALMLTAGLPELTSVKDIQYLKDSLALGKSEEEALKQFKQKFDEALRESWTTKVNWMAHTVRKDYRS
# Sequence of PI3K (p110b/p85a)(m) (P26450 2-724 partner): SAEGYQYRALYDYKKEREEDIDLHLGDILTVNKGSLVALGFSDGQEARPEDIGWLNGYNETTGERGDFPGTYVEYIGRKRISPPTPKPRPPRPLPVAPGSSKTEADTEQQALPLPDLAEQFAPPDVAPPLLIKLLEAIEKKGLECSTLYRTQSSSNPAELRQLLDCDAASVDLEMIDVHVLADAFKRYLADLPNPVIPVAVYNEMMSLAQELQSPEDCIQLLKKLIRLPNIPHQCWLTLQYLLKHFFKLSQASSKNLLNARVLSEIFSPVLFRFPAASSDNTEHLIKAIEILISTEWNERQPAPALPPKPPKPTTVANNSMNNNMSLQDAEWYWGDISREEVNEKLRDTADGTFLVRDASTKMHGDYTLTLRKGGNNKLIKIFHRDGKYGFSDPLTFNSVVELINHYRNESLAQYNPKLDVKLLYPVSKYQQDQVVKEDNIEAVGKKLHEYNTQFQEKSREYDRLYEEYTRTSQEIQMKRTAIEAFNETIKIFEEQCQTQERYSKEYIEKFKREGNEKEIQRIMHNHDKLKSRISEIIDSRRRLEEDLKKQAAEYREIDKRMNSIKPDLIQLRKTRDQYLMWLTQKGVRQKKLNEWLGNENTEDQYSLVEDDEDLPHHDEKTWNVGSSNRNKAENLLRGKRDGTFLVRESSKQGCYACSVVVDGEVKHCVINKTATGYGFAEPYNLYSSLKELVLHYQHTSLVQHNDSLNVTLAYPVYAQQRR
# Sequence of EphA1(h) (P21709 26-976): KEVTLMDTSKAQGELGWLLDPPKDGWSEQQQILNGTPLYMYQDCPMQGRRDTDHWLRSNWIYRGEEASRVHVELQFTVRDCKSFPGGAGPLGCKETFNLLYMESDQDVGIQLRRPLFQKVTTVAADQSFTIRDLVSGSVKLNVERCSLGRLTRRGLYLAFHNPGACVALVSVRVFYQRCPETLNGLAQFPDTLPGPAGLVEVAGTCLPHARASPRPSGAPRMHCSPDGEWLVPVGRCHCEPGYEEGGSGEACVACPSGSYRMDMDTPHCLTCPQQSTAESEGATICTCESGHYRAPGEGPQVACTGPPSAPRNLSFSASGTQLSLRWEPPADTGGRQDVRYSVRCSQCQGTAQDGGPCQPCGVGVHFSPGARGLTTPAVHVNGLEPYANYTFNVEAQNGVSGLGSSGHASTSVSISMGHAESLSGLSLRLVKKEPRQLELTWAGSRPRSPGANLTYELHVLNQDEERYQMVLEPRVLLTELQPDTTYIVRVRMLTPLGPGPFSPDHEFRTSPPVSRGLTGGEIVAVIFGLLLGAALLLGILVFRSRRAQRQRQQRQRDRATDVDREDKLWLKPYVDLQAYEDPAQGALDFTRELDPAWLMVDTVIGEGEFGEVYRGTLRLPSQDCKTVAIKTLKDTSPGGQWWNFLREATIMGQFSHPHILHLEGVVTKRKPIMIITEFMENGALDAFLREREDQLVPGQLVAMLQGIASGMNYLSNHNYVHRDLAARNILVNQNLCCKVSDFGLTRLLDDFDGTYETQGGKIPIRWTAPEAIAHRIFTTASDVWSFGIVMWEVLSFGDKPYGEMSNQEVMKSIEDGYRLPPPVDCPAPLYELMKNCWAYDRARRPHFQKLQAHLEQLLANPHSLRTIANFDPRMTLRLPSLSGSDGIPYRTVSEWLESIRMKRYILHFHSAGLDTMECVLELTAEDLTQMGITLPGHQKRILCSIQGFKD
# Sequence of CaMKIV(h) (Q16566 whole entry): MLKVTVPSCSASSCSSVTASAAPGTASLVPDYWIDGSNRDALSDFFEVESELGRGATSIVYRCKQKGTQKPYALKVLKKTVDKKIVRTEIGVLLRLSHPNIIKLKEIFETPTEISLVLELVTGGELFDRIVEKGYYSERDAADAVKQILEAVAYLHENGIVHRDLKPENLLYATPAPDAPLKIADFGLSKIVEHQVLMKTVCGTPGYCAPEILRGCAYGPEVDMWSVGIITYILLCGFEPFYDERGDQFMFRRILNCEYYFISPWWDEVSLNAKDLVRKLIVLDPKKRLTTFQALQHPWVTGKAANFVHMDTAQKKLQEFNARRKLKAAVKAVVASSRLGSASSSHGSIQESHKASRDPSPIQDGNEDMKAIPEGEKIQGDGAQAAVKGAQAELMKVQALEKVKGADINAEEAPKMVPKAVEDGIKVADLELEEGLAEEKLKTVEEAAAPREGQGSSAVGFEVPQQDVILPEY
# Sequence of JNK3(h) (P53779 whole entry): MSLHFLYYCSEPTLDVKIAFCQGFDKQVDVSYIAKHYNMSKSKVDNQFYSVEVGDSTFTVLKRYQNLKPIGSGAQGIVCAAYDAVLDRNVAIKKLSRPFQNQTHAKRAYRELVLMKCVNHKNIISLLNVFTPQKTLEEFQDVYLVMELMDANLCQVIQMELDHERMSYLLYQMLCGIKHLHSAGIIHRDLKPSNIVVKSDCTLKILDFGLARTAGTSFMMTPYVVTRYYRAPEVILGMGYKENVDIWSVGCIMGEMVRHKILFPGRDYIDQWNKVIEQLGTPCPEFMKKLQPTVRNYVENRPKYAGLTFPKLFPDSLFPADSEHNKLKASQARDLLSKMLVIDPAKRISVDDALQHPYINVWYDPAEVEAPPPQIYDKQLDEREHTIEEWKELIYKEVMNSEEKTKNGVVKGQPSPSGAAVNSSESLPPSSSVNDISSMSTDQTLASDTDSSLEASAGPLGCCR
# Sequence of RHOA (P61586 whole entry): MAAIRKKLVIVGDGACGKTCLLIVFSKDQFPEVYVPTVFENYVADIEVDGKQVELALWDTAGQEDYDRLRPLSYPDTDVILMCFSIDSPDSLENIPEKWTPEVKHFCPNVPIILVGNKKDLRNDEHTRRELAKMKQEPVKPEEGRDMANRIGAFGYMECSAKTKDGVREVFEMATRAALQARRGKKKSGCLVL
compound,measurement,setting,value
COc1ccc(OC)c(NS(=O)(=O)c2ccc(NC(=O)CCSc3ccc(C)cc3)cc2)c1 [Compound A41],Activity(%),[1],122%
same,Activity(%),[2],87%
same,Activity(%),[3],114%
same,Activity(%),[4],101%
same,Activity(%),[5],87%
same,Activity(%),[6],89%
same,Activity(%),[7],98%
same,Activity(%),[8],114%
same,Activity(%),[9],123%
same,Activity(%),[10],104%
same,Activity(%),[11],101%
same,Activity(%),[12],108%
same,Activity(%),[13],100%
same,Activity(%),[14],101%
same,activation of RHOA induced by p115RhoGEF DH-PH,[15],did not change the activation
